Patent US10959428B2, “Hematophagous arthropod repellent composition” (WOOJUNG BIO INC., priority 2017, dated 2021)

Tests used:
adult Aedes aegypti = assay: cage-in-arm test, complete protection time (CPT); type: in vivo; conditions: 4 mg
Procedure: For determining the repellency of prepared samples against adults of Aedes aegypti and Aedes albopicus, a cage-in-arm test was carried out as a method for exposure to skin. Namely, on a back of the hand of a rubber glove, a hole with diameter of 5 cm was created, and, onto an exposed back of the testees, various samples prepared by dissolution in 100 μl of ethanol were applied, and then the skin test was carried out. The testees were healthy males between the ages of 21 and 40. The control group was treated with 100 μl of ethanol only. Female adults (5 to 8 day old) of Aedes aegypti or Aedes albopicus (250 to 300 mosquitoes) were added to a cage for growing adult mosquitoes (25×25×25 cm^3), and adapted to the indoor conditions for 12 to 24 hours before starting the test. When the upper arm of the control group is exposed for 1 minute and at least 6 mosquitoes sit on the upper arm or show a bloodsucking behavior, it was determined as sufficient biting pressure, and then the repellency test was carried out. […] The time period between the time point with initial treatment of a material and the time point at which 2 or more mosquitoes continuously sit on the treatment area or show the bloodsucking behavior was defined as complete protection time (CPT). Furthermore, for obtaining the repellency with regard to concentration, exposure was made for a constant time period regardless of the above and the repellency was calculated by using the following formula. Accordingly, the effect was compared among each test samples. All tests were carried out in triplicate. Repellency %=(Number of insects showing bloodsucking behavior in non-treatment group−Number of insects showing bloodsucking behavior in treatment group)/Number of insects showing bloodsucking behavior in non-treatment group)×100 <Tick Repellency>

adult Aedes albopicus = assay: cage-in-arm test, repellency and CPT; type: in vivo, Aedes albopictus
Procedure: For determining the repellency of prepared samples against adults of Aedes aegypti and Aedes albopicus, a cage-in-arm test was carried out as a method for exposure to skin. Namely, on a back of the hand of a rubber glove, a hole with diameter of 5 cm was created, and, onto an exposed back of the testees, various samples prepared by dissolution in 100 μl of ethanol were applied, and then the skin test was carried out. The testees were healthy males between the ages of 21 and 40. The control group was treated with 100 μl of ethanol only. Female adults (5 to 8 day old) of Aedes aegypti or Aedes albopicus (250 to 300 mosquitoes) were added to a cage for growing adult mosquitoes (25×25×25 cm^3), and adapted to the indoor conditions for 12 to 24 hours before starting the test. When the upper arm of the control group is exposed for 1 minute and at least 6 mosquitoes sit on the upper arm or show a bloodsucking behavior, it was determined as sufficient biting pressure, and then the repellency test was carried out. With an interval of 30 minutes, by exposing the upper arm, which has been treated with the above composition, for 3 minutes, and, when the adult mosquito sits on the arm for 2 seconds or longer or at least two mosquitoes showing the behavior of mouth injection to skin or direct bloodsucking are found from consecutive tests, the test was stopped. The time period between the time point with initial treatment of a material and the time point at which 2 or more mosquitoes continuously sit on the treatment area or show the bloodsucking behavior was defined as complete protection time (CPT). Furthermore, for obtaining the repellency with regard to concentration, exposure was made for a constant time period regardless of the above and the repellency was calculated by using the following formula. Accordingly, the effect was compared among each test samples. All tests were carried out in triplicate. Repellency %=(Number of insects showing bloodsucking behavior in non-treatment group−Number of insects showing bloodsucking behavior in treatment group)/Number of insects showing bloodsucking behavior in non-treatment group)×100 <Tick Repellency>
For reference, comparison of the mosquito repellency was made by using clove oil as a natural positive control group and DEET as a synthetic positive control group.
To determine the repellency of plant essential oil alone against adult Aedes albopicus and nymphs of Haemaphysalis longicornis, the cage-in-arm test and finger-tip method were carried out, in the same manner as Examples 1-2 and 1-3, with each of 16 kinds of plant essential oil of Table 4.

## CCN(CC)C(=O)c1cccc(C)c1 [DEET, N,N-diethyl-m-toluamide]
Adult Aedes aegypti; adult Aedes aegypti
  CPT: 90 min
Adult Aedes aegypti; adult Aedes aegypti (Table 6)
  CPT: 90 min
Adult Aedes albopicus; 0.03 mg/cm^2, 10 minutes
  Repellency (mean ± SE, %): 77 ± 5.8%
Adult Aedes albopicus; 0.03 mg/cm^2, 30 minutes
  Repellency (mean ± SE, %): 67 ± 3.3%
Adult Aedes albopicus; 0.03 mg/cm^2, 60 minutes
  Repellency (mean ± SE, %): 69 ± 6.9%
Adult Aedes albopicus; 0.03 mg/cm^2, 90 minutes
  Repellency (mean ± SE, %): 19 ± 5.2%
Adult Aedes albopicus; 0.10 mg/cm^2, 10 minutes
  Repellency (mean ± SE, %): 100 ± 0%
Adult Aedes albopicus; 0.10 mg/cm^2, 30 minutes
  Repellency (mean ± SE, %): 96 ± 2.6%
Adult Aedes albopicus; 0.10 mg/cm^2, 60 minutes
  Repellency (mean ± SE, %): 86 ± 4.2%
Adult Aedes albopicus; 0.10 mg/cm^2, 90 minutes
  Repellency (mean ± SE, %): 83 ± 4.3%
Adult Aedes albopicus; 0.10 mg/cm^2, 120 minutes
  Repellency (mean ± SE, %): 82 ± 9.5%
Adult Aedes albopicus; 0.10 mg/cm^2, 150 minutes
  Repellency (mean ± SE, %): 57 ± 5.2%
Adult Aedes albopicus; 0.10 mg/cm^2, 180 minutes
  Repellency (mean ± SE, %): 27 ± 3.8%
Adult Aedes albopicus; 0.20 mg/cm^2, 10 minutes
  Repellency (mean ± SE, %): 100 ± 0%
Adult Aedes albopicus; 0.20 mg/cm^2, 30 minutes
  Repellency (mean ± SE, %): 100 ± 0%
Adult Aedes albopicus; 0.20 mg/cm^2, 60 minutes
  Repellency (mean ± SE, %): 100 ± 0%
Adult Aedes albopicus; 0.20 mg/cm^2, 90 minutes
  Repellency (mean ± SE, %): 100 ± 0%
Adult Aedes albopicus; 0.20 mg/cm^2, 120 minutes
  Repellency (mean ± SE, %): 95 ± 3.3%
Adult Aedes albopicus; 0.20 mg/cm^2, 150 minutes
  Repellency (mean ± SE, %): 96 ± 1.2%
Adult Aedes albopicus; 0.20 mg/cm^2, 180 minutes
  Repellency (mean ± SE, %): 85 ± 3.0%
Adult Aedes albopicus; 0.25 mg/cm^2, 10 minutes
  Repellency (mean ± SE, %): 100 ± 0%
Adult Aedes albopicus; 0.25 mg/cm^2, 30 minutes
  Repellency (mean ± SE, %): 100 ± 0%
Adult Aedes albopicus; 0.25 mg/cm^2, 60 minutes
  Repellency (mean ± SE, %): 100 ± 0%
Adult Aedes albopicus; 0.25 mg/cm^2, 90 minutes
  Repellency (mean ± SE, %): 100 ± 0%
Adult Aedes albopicus; 0.25 mg/cm^2, 120 minutes
  Repellency (mean ± SE, %): 100 ± 0%
Adult Aedes albopicus; 0.25 mg/cm^2, 150 minutes
  Repellency (mean ± SE, %): 100 ± 0%
Adult Aedes albopicus; 0.25 mg/cm^2, 180 minutes
  Repellency (mean ± SE, %): 84 ± 4.3%
Adult Aedes albopicus; 4 mg, adult Aedes albopicus
  CPT: 90 min
